In patent US6153740A, “cDNA encoding nucleoside transporter” (University of Alberta, priority 1997, dated 2000):
Entries after “also recorded” stand apart in the source; their conditions may differ. Where two headings read alike, the source gives them in different places.

How the values were obtained:
CNT1 [1] = molecular target: T1, CNT1 (Rattus norvegicus, UniProt Q62674); experiment: inhibition of CNT1-mediated nucleoside (uridine, AZT, ddC) transport in Xenopus oocytes; assay type: cell-based; conditions: for effect on expressed uridine fluxes/transport: inhibitor 1 mM; for selective inhibition of uridine and thymidine fluxes (rCNT1): adenosine, cytidine, uridine>>guanosine, inosine
T1 sequence (Q62674 1-648): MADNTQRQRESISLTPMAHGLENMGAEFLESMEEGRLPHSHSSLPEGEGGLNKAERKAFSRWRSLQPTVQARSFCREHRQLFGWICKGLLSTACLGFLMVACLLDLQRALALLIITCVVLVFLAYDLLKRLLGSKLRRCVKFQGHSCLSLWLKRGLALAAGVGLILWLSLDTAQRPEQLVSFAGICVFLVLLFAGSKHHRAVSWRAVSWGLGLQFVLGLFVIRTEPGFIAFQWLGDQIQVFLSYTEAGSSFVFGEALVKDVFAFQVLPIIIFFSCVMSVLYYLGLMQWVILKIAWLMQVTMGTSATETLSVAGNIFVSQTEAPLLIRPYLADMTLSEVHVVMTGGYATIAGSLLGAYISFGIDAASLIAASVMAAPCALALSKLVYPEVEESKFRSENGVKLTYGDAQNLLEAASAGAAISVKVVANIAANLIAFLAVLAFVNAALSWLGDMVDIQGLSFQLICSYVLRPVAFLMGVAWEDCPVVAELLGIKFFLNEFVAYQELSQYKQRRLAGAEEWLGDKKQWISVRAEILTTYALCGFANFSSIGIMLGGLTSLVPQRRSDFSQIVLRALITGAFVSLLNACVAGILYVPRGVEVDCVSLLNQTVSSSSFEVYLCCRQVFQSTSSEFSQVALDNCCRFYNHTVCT
Method: (§1) Oocytes were injected with water or RNA transcribed in vitro from the nucleoside transporter cDNA (pQQH1). […] For panels c and d, the permeant concentration was 10 μM and competing nonradioactive nucleosides were present at a concentration of 1 mM.
(§2) Remaining template was removed by digestion with RQ1 DNase. Oocytes were treated with collagenase to remove follicular layers (Huang et al, 1993) and injected with 10 ng of pQQH1 cRNA or water. […] At the end of the incubation, extracellular label was removed by six rapid ice-cold washes in the appropriate transport buffer. Individual oocytes were dissolved in 5% SDS for quantitation of oocyte-associated ^3 H by liquid scintillation counting (LS 6000 IC, Beckman).

hCNT1a [2] = molecular target: T2, hCNT1a (Homo sapiens, UniProt O00337); experiment: inhibition of hCNT1a-mediated influx of [3H]uridine in Xenopus oocytes; conditions: uridine 10 μM; for inhibition of uridine fluxes, hCNT1a: competitor 1 mM (FIG. 12A), guanosine also in FIG. 13
T2 sequence (O00337 with tags, fused parts or gaps E34G/INS140V): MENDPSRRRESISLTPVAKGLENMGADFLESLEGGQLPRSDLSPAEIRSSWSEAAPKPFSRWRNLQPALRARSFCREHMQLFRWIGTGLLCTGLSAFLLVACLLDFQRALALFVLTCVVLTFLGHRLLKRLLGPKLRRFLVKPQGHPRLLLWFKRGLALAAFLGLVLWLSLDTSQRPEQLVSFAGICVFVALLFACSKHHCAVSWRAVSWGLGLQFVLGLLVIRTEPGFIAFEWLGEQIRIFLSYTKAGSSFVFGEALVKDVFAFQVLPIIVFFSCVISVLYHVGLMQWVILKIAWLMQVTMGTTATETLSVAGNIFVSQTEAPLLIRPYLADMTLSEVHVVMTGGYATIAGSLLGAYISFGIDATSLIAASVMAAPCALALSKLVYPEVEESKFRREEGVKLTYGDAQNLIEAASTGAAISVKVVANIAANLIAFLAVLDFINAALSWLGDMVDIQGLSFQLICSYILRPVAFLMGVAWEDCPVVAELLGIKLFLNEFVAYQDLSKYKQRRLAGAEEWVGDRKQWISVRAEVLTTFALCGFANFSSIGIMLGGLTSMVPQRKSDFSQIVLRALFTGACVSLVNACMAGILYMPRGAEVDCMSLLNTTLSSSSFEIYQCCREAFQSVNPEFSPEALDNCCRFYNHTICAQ
Method: H2 O, water-injected oocytes. Fluxes were not corrected for the contribution of endogenous transport activity.
(§3) Defolliculated oocytes (Huang et al. 1993) were injected with either 10 nl of water containing 10 ng RNA transcript or 10 nl of water alone. Nucleoside uptake was measured after 3 d and was traced with the respective [^3 H] or [^14 C]nucleoside (Moravek Biochemicals)(5 μC 3H/ml, 1 μC 14C/ml). […] The transport buffer for adenosine influx experiments contained 1 μM deoxycoformycin to inhibit adenosine deaminase activity. Results are presented as means ±SEM for 10-12 individual oocytes. Kinetic constants were determined by non-linear regression analysis (ENZFITTER, Elsevier-Biosoft). Each experiment was performed at least twice on different batches of oocytes.

hCNT1b [3] = molecular target: T3, hCNT1b (Homo sapiens, UniProt O00337); experiment: inhibition of hCNT1b-mediated influx of [3H]uridine in Xenopus oocytes; assay type: cell-based; conditions: uridine 10 μM; for inhibition of uridine fluxes, hCNT1b: competitor 1 mM (FIG. 12B)
T3 sequence (O00337 2-649 V189I/N409S/D521N): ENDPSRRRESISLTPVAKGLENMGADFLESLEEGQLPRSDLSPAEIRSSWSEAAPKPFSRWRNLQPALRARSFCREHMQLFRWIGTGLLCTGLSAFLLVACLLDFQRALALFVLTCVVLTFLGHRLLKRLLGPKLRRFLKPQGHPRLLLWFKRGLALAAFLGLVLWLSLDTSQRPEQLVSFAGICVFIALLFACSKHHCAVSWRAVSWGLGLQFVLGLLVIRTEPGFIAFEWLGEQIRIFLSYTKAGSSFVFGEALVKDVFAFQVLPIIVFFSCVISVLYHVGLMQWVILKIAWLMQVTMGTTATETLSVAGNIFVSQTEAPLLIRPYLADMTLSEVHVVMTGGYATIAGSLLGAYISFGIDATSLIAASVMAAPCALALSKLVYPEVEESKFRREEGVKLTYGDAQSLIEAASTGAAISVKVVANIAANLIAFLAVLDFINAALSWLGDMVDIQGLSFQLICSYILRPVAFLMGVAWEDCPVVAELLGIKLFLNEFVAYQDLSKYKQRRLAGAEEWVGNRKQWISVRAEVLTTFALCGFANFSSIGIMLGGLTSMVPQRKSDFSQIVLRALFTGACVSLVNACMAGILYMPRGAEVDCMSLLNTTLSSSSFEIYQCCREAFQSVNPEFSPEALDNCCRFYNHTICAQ
Source text: H2 O, water-injected oocytes.

[4] = test system: human erythrocyte es transporter; conditions: cited from earlier work
human erythrocytes = conditions: cited from earlier work
CNT1 [5] = molecular target: T1, CNT1; experiment: uptake/influx of radiolabelled nucleosides in Xenopus oocytes injected with pQQH1 (rat CNT1) cRNA; assay type: cell-based; conditions: for Vmax: rat CNT1, permeant = labelled substance
Method: as §1
Oocytes injected with water or in vitro transcribed RNA from pQQH1 were incubated with radiolabeled permanent (10 μM) for 30 min (open columns) or 1 h (hatched columns) at 20° C. Each value represents the mean ±S. E. of 8-10 ooctyes.
as §2

hCNT1a [6] = molecular target: T2, hCNT1a; experiment: influx of radiolabelled nucleosides in Xenopus oocytes injected with hCNT1a RNA transcript
Method: Oocytes were injected with either water alone or water containing hCNT1a RNA transcript.
Oocytes were injected with either water alone (.tangle-solidup.) or water containing hCNT1a RNA transcript (.smallcircle.,.circle-solid.).
Adenosine, guanosine and AZT (10 μM) fluxes were compared in the same batch of oocytes injected either with water (open columns) or with RNA transcript for hCNT1a or rCNT1 (hatched and solid columns, respectively).
as §3

hCNT1b [7] = molecular target: T3, hCNT1b; experiment: influx of radiolabelled nucleosides in Xenopus oocytes injected with hCNT1b RNA transcript; assay type: cell-based
Method: as §3

rat jejunum = experiment: uptake of [3H]AZT by rat jejunum in vivo
[8] = substrate: O=c1ccn([C@@H]2O[C@H](CO)[C@@H](O)[C@H]2O)c(=O)[nH]1; experiment: cells, lysate or membranes; conditions: other: hCNT1a; 20.0 °C
[9] = 10 μM, same experiment as adenosine (FIG. 14A)

O=c1ccn([C@@H]2O[C@H](COP(=O)(O)OP(=O)(O)O)[C@@H](O)[C@H]2O)c(=O)[nH]1 [UDP]
effect on expressed uridine fluxes/transport (CNT1 [1]): no effect

O=c1ccn([C@@H]2O[C@H](COP(=O)(O)O)[C@@H](O)[C@H]2O)c(=O)[nH]1 [UMP]
effect on expressed uridine fluxes/transport (CNT1 [1]): no effect

O=c1ccn([C@@H]2O[C@H](COP(=O)(O)OP(=O)(O)OP(=O)(O)O)[C@@H](O)[C@H]2O)c(=O)[nH]1 [UTP]
effect on expressed uridine fluxes/transport (CNT1 [1]): no effect

O=c1cc[nH]c(=O)[nH]1 [Uracil]
effect on expressed uridine fluxes/transport (CNT1 [1]): no effect

Nc1ccn([C@@H]2O[C@H](CO)[C@@H](O)[C@H]2O)c(=O)n1 [cytidine]
selective inhibition of uridine and thymidine fluxes (rCNT1) (CNT1 [1]): selective inhibition | inhibition of uridine fluxes, hCNT1a (hCNT1a [2]): inhibited | inhibition of uridine fluxes, hCNT1b (hCNT1b [3]): inhibited

Nc1ccn([C@H]2CC[C@@H](CO)O2)c(=O)n1 [ddC, 2',3'-dideoxycytidine]
Km ([4]; Domin et al, 1993): 23000 µM | transport by equilibrative nucleoside transporters [4]: low affinity es substrate | IC50 (CNT1 [1]): < 1000 µM | inhibition of hCNT1a-mediated influx of uridine (hCNT1a [2]; analog 5 mM (FIG. 12A)): inhibited | rate of entry into human erythrocytes relative to those of thymidine and cytidine (human erythrocytes): < 2% | CNT1-mediated uptake/transport (CNT1 [5]; 10 μM permeant): large increases | Na+ dependence of initial rate of expressed uptake (CNT1 [5]; 10 μM, 10-min flux): 93% | Vmax (CNT1 [5]): 20 pmol/oocyte.min^-1 | inhibition of hCNT1b-mediated influx of uridine (hCNT1b [3]; analog 5 mM (FIG. 12B)): inhibited

Nc1nc2c(ncn2[C@H]2CC[C@@H](CO)O2)c(=O)[nH]1 [ddG, 2',3'-dideoxyguanosine]
effect on expressed uridine fluxes/transport (CNT1 [1]): no effect

OC[C@@H]1CC[C@H](n2cnc3c(O)ncnc32)O1 [ddl, 2',3'-dideoxyinosine]
effect on expressed uridine fluxes/transport (CNT1 [1]): no effect

Nc1nc2c(ncn2[C@@H]2O[C@H](CO)[C@@H](O)[C@H]2O)c(=O)[nH]1 [guanosine]
selective inhibition of uridine and thymidine fluxes (rCNT1) (CNT1 [1]): >>guanosine, inosine | permeant quality, hCNT1 (hCNT1a [6]): poor CNT1 permeant; also recorded: poor hCNT1 permeants | mediated flux, hCNT1a (hCNT1a [6]; 10 μM permeant (FIG. 14)): 0.06±0.01 pmol/oocyte.10 min^-1 | inhibition of uridine fluxes, hCNT1a (hCNT1a [2]): not and not inhibited | fluxes, hCNT1b (results not shown) (hCNT1b [7]): very low guanosine fluxes | mediated flux, rCNT1 (CNT1 [5]; 10 μM permeant (FIG. 14)): 0.05±0.01 pmol/oocyte.10 min^-1 | inhibition of uridine fluxes, hCNT1b (hCNT1b [3]): not

OC[C@H]1O[C@@H](n2cnc3c(O)ncnc32)[C@H](O)[C@@H]1O [inosine]
selective inhibition of uridine and thymidine fluxes (rCNT1) (CNT1 [1]): >>guanosine, inosine | inhibition of uridine fluxes, hCNT1a (hCNT1a [2]): not | inhibition of uridine fluxes, hCNT1b (hCNT1b [3]): not

Cc1cn([C@H]2C[C@H](O)[C@@H](CO)O2)c(=O)[nH]c1=O [thymidine]
selective inhibition of uridine and thymidine fluxes (rCNT1) (CNT1 [1]): selective inhibition | inhibition of uridine fluxes, hCNT1a (hCNT1a [2]): inhibited | inhibition of uridine fluxes, hCNT1b (hCNT1b [3]): inhibited

O=c1ccn([C@@H]2O[C@H](CO)[C@@H](O)[C@H]2O)c(=O)[nH]1 [uridine]
inhibition of [3H]AZT uptake by rat jejunum in vivo (rat jejunum): inhibited by uridine | inhibition at 1000 µM (CNT1 [1]; read-out: inhibition of expressed AZT uptake): > 95% | inhibition at 1000 µM (CNT1 [1]; read-out: inhibition of expressed ddC uptake): > 95% | uridine influx in Na+-medium (hCNT1a [6]; 10 μM, 100 mM NaCl (FIG. 9)): 4.88±0.70 pmol/oocyte.min^-1 | uridine influx in choline-medium (hCNT1a [6]; 10 μM, 100 mM choline chloride (FIG. 9)): 0.18±0.01 pmol/oocyte.min^-1 | uridine flux, hCNT1a (hCNT1a [6]; [9]): 3.68±0.46 pmol/oocyte.min^-1 | Na+-independent uridine influx (hCNT1a [6]; 50 μM uridine (FIG. 11)): 0.81±0.14 pmol/oocyte.min^-1 | Vmax, influx of uridine (hCNT1a [6]; hCNT1a): 26±1 pmol/oocyte.min^-1 | inhibition of uridine fluxes, hCNT1a (hCNT1a [2]): inhibited | Vmax, influx of uridine (hCNT1b [7]; hCNT1b): 22±2 pmol/oocyte.min^-1 | Km (hCNT1b [7]; read-out: apparent Km, influx of uridine, hCNT1b): 37 ± 10 µM | intracellular concentration higher than that in the extracellular medium (CNT1 [5]; 10 μM uridine, 30 min): approximately 6 -fold | cellular content of uridine after 30 min (CNT1 [5]; 10 μM, 20° C., 30 min, pQQH1 cRNA-injected): 64 pmol/oocyte | uridine flux, rCNT1 (CNT1 [5]; [9]): 5.60±0.38 pmol/oocyte.min^-1 | effect of substitution of Cl- by gluconate on flux (CNT1 [5]; 100 mM NaCl or sodium gluconate, 10 mM HEPES, pH 7.6): unaffected | Vmax (uridine transport) (CNT1 [5]; rat CNT1): 21 pmol/oocyte-min^-1 | Vmax (CNT1 [5]): 21 pmol/oocyte.min^-1 | inhibition of uridine fluxes, hCNT1b (hCNT1b [3]): inhibited

B1: hCNT1a (Homo sapiens) (protein)
chain: MENDPSRRRESISLTPVAKGLENMGADFLESLEGGQLPRSDLSPAEIRSSWSEAAPKPFSRWRNLQPALRARSFCREHMQLFRWIGTGLLCTGLSAFLLVACLLDFQRALALFVLTCVVLTFLGHRLLKRLLGPKLRRFLVKPQGHPRLLLWFKRGLALAAFLGLVLWLSLDTSQRPEQLVSFAGICVFVALLFACSKHHCAVSWRAVSWGLGLQFVLGLLVIRTEPGFIAFEWLGEQIRIFLSYTKAGSSFVFGEALVKDVFAFQVLPIIVFFSCVISVLYHVGLMQWVILKIAWLMQVTMGTTATETLSVAGNIFVSQTEAPLLIRPYLADMTLSEVHVVMTGGYATIAGSLLGAYISFGIDATSLIAASVMAAPCALALSKLVYPEVEESKFRREEGVKLTYGDAQNLIEAASTGAAISVKVVANIAANLIAFLAVLDFINAALSWLGDMVDIQGLSFQLICSYILRPVAFLMGVAWEDCPVVAELLGIKLFLNEFVAYQDLSKYKQRRLAGAEEWVGDRKQWISVRAEVLTTFALCGFANFSSIGIMLGGLTSMVPQRKSDFSQIVLRALFTGACVSLVNACMAGILYMPRGAEVDCMSLLNTTLSSSSFEIYQCCREAFQSVNPEFSPEALDNCCRFYNHTICAQ
Km [8]: 45 ± 8 µM
